Results reported in patent US9840495B2, “Oxindole derivatives carrying a piperidyl-substituted azetidinyl substituent and use thereof for treating vasopressine-related diseases” (AbbVie Deutschland GmbH & Co. KG, priority 2013, dated 2017).
Structures can show the parent of a compound that is named as a salt.

Assays:
[1] = molecular target: human vasopressin V1a receptor (Homo sapiens, UniProt P37288); experiment: Vasopressin V1a receptor binding assay (125I-AVP displacement, CHO-K1 membranes); settings: selectivity quotient, human V1a vs human V1b receptor binding
[2] = molecular target: T1, human vasopressin V1b receptor (Homo sapiens, UniProt P47901); experiment: biochemical
T1 sequence (P47901 1-424): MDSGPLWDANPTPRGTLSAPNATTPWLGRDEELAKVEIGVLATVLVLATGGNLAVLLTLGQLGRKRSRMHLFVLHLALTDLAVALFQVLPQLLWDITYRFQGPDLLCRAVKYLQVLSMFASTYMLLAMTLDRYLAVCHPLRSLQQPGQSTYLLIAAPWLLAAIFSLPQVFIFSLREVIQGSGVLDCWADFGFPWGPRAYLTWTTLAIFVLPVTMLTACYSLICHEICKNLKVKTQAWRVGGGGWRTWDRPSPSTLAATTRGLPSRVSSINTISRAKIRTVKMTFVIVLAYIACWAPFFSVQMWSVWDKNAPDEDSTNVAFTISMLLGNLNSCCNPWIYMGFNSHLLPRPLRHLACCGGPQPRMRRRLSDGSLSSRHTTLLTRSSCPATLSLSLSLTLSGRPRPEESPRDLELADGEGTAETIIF

Chain of human vasopressin V1a receptor (P37288 whole entry): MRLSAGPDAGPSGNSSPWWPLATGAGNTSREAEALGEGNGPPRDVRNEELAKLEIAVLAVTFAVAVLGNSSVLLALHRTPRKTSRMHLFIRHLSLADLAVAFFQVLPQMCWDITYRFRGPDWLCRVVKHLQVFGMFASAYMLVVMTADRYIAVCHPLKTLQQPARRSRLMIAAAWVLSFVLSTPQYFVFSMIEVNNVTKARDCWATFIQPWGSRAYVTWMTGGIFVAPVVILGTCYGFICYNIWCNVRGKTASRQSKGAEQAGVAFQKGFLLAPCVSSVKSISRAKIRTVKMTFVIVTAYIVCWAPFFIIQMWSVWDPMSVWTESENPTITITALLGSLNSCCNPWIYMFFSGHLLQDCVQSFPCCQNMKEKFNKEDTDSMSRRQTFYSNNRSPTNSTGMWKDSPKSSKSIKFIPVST

Row | Structure (SMILES) | Ki(h-V1a)/Ki(h-V1b) [1] | Ki [2]
1 | COc1ccc(S(=O)(=O)N2C(=O)[C@@](NC(=O)N3CC(N4CCC(N(C)C5COC5)CC4)C3)(c3cccnc3OC)c3cc(C#N)ccc32)c(OC)c1 [Example 4, (S)—N-(5-Cyano-1-((2,4-dimethoxyphenyl)sulfonyl)-3-(2-methoxypyridin-3-yl)-2-oxoindolin-3-yl)-3-(4-(methyl(oxetan-3-yl)amino)piperidin-1-yl)azetidine-1-carboxamide] | +++ (>75) | 1 to 10 nM
2 | CCOc1ncccc1[C@]1(NC(=O)N2CC(N3CCC(N(C)C4COC4)CC3)C2)C(=O)N(S(=O)(=O)c2ccc(OC)cc2OC)c2cc(F)c(F)cc21 [Example 11, N-[(3S)-1-[(2,4-Dimethoxyphenyl)sulfonyl]-3-(2-ethoxypyridin-3-yl)-5,6-difluoro-2-oxo-2,3-dihydro-1H-indol-3-yl]-3-{4-[methyl(oxetan-3-yl)amino]piperidin-1-yl}azetidine-1-carboxamide] | ++ (25-75) | 1 to 10 nM
3 | CCOc1ncccc1[C@]1(NC(=O)N2CC(N3CCC(N4CC(C5COC5)C4)CC3)C2)C(=O)N(S(=O)(=O)c2ccc(OC)cc2OC)c2ccc(C#N)cc21 [Example 18, (S)—N-(5-Cyano-1-((2,4-dimethoxyphenyl)sulfonyl)-3-(2-ethoxypyridin-3-yl)-2-oxoindolin-3-yl)-3-(4-(3-(oxetan-3-yl)azetidin-1-yl)piperidin-1-yl)azetidine-1-carboxamide] | +++ (>75) | < 1 nM
4 | COc1cc(F)ccc1S(=O)(=O)N1C(=O)[C@@](NC(=O)N2CC(N3CCC(N(C)C4COC4)CC3)C2)(c2cccnc2OC)c2cc(C#N)ccc21 [Example 30, (S)—N-(5-Cyano-1-((4-fluoro-2-methoxyphenyl)sulfonyl)-3-(2-methoxypyridin-3-yl)-2-oxoindolin-3-yl)-3-(4-(methyl(oxetan-3-yl)amino)piperidin-1-yl)azetidine-1-carboxamide] | + (10-<25) | 1 to 10 nM
5 | CCOc1ncccc1[C@]1(NC(=O)N2CC(N3CCC(N(C)C4COC4)CC3)C2)C(=O)N(S(=O)(=O)c2ccc(OC)cc2OC)c2ccc(C#N)cc21 [Example 2, (S)—N-(5-cyano-1-((2,4-dimethoxyphenyl)sulfonyl)-3-(2-ethoxypyridin-3-yl)-2-oxoindolin-3-yl)-3-(4-(methyl(oxetan-3-yl)amino)piperidin-1-yl)azetidine-1-carboxamide] | +++ (>75) | < 1 nM
6 | CCOc1ncccc1[C@]1(NC(=O)N2CC(N3CCC(N4CCOCC4)CC3)C2)C(=O)N(S(=O)(=O)c2ccc(OC)cn2)c2ccc(C#N)cc21 [Example 36, (S)—N-(5-Cyano-3-(2-ethoxypyridin-3-yl)-1-((5-methoxypyridin-2-yl)sulfonyl)-2-oxoindolin-3-yl)-3-(4-morpholinopiperidin-1-yl)azetidine-1-carboxamide×TFA] | + (10-<25) | 1 to 10 nM
7 | CCOc1ncccc1[C@]1(NC(=O)N2CC(N3CCC(N4CC(F)(F)C4)CC3)C2)C(=O)N(S(=O)(=O)c2ccc(OC)cc2OC)c2ccc(C#N)cc21 [Example 39, (S)—N-(5-Cyano-1-((2,4-dimethoxyphenyl)sulfonyl)-3-(2-ethoxypyridin-3-yl)-2-oxoindolin-3-yl)-3-(4-(3,3-difluoroazetidin-1-yl)piperidin-1-yl)azetidine-1-carboxamide] | +++ (>75) | 10 to 100 nM
8 | CCOc1ncccc1[C@]1(NC(=O)N2CC(N3CCC(N4CCOCC4)CC3)C2)C(=O)N(S(=O)(=O)c2ccc(OC)cc2F)c2ccc(C#N)cc21 [Example 27, (S)—N-(5-cyano-3-(2-ethoxypyridin-3-yl)-1-((2-fluoro-4-methoxyphenyl)sulfonyl)-2-oxoindolin-3-yl)-3-(4-morpholinopiperidin-1-yl)azetidine-1-carboxamide] | +++ (>75) | < 1 nM
9 | CCOc1ncccc1[C@]1(NC(=O)N2CC(N3CCC(N(CC)C4COC4)CC3)C2)C(=O)N(S(=O)(=O)c2ccc(OC)cc2OC)c2ccc(C#N)cc21 [Example 5, (S)—N-(5-Cyano-1-((2,4-dimethoxyphenyl)sulfonyl)-3-(2-ethoxypyridin-3-yl)-2-oxoindolin-3-yl)-3-(4-(ethyl(oxetan-3-yl)amino)piperidin-1-yl)azetidine-1-carboxamide] | +++ (>75) | 1 to 10 nM
10 | COc1ccc(S(=O)(=O)N2C(=O)[C@@](NC(=O)N3CC(N4CCC(N(C)C5COC5)CC4)C3)(c3cccnc3OC)c3cc(C#N)ccc32)cc1 [Example 35, (S)—N-(5-cyano-1-((4-methoxyphenyl)sulfonyl)-3-(2-methoxypyridin-3-yl)-2-oxoindolin-3-yl)-3-(4-(methyl(oxetan-3-yl)amino)piperidin-1-yl)azetidine-1-carboxamide] | ++ (25-75) | 1 to 10 nM
11 | CCOc1ncccc1[C@]1(NC(=O)N2CC(N3CCC(N4CCOCC4)CC3)C2)C(=O)N(S(=O)(=O)c2cc(F)c(OC)cc2OC)c2ccc(C#N)cc21 [Example 24, (S)—N-(5-Cyano-3-(2-ethoxypyridin-3-yl)-1-((5-fluoro-2,4-dimethoxyphenyl)sulfonyl)-2-oxoindolin-3-yl)-3-(4-morpholinopiperidin-1-yl)azetidine-1-carboxamide] | +++ (>75) | 1 to 10 nM
12 | CCOc1ncccc1[C@]1(NC(=O)N2CC(N3CCC(N(C)CCOC)CC3)C2)C(=O)N(S(=O)(=O)c2ccc(OC)cc2OC)c2ccc(C#N)cc21 [Example 15, (S)—N-(5-Cyano-1-((2,4-dimethoxyphenyl)sulfonyl)-3-(2-ethoxypyridin-3-yl)-2-oxoindolin-3-yl)-3-(4-((2-methoxyethyl)(methyl)amino)piperidin-1-yl)azetidine-1-carboxamide] | +++ (>75) | 1 to 10 nM
13 | CCOc1ncccc1[C@]1(NC(=O)N2CC(N3CCC(N(C)C4COC4)CC3)C2)C(=O)N(S(=O)(=O)c2ccc(OC)cc2OC)c2cc(F)c(C#N)cc21 [Example 10, (S)—N-(5-Cyano-1-((2,4-dimethoxyphenyl)sulfonyl)-3-(2-ethoxypyridin-3-yl)-6-fluoro-2-oxoindolin-3-yl)-3-(4-(methyl(oxetan-3-yl)amino)piperidin-1-yl)azetidine-1-carboxamide] | +++ (>75) | < 1 nM
14 | CCOc1ncccc1[C@]1(NC(=O)N2CC(N3CCC(N4CCOCC4)CC3)C2)C(=O)N(S(=O)(=O)c2ccc(OC)cc2)c2ccc(C#N)cc21 [Example 25, (S)—N-(5-Cyano-3-(2-ethoxypyridin-3-yl)-1-((4-methoxyphenyl)sulfonyl)-2-oxoindolin-3-yl)-3-(4-morpholinopiperidin-1-yl)azetidine-1-carboxamide] | ++ (25-75) | < 1 nM
15 | CCOc1ncccc1[C@]1(NC(=O)N2CC(N3CCC(N4CCOCC4)CC3)C2)C(=O)N(S(=O)(=O)c2ccc(OC)cc2OC)c2cc(F)c(F)cc21 [Example 8, (S)—N-(1-((2,4-Dimethoxyphenyl)sulfonyl)-3-(2-ethoxypyridin-3-yl)-5,6-difluoro-2-oxoindolin-3-yl)-3-(4-morpholinopiperidin-1-yl)azetidine-1-carboxamide] | ++ (25-75) | < 1 nM
